Reference: patent US6737383B1, “Herbicidal oxadiazolidines” (priority 1999, dated 2004)

Columns and labels:
corn = experiment: Test B pre/postemergence corn; type: in vivo, Zea mays
Method in brief: (§1)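 Test chemicals in a non-phytotoxic solvent mixture with surfactant were sprayed preemergence onto planted seeds and postemergence onto plants 2 to 18 cm tall (1- to 4-leaf stage). After twelve to sixteen days in a greenhouse, injury was visually rated against untreated controls from 0 (no effect) to 10 (complete control).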

rape = experiment: Test B pre/postemergence rape; type: in vivo, Brassica napus
Method in brief: as §1

soybean = experiment: Test B pre/postemergence soybean; type: in vivo, Glycine max; conditions: for Plant response rating, Soybean: Postemergence
Method in brief: as §1

smallflower flatsedge = experiment: Test B flood test smallflower flatsedge; type: in vivo, Cyperus difformis
Method in brief: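 Each value is a visual injury score relative to controls, with 10 meaning complete control and 0 no effect. Evaluation took place twelve to sixteen days after the 2-leaf-stage plants were treated and kept in the greenhouse.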

winter wheat [1] = experiment: Test E winter wheat; type: in vivo, Triticum aestivum; conditions: Postemergence
Method in brief: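 For postemergence, application to 1- to 4-leaf plants growing in a 60:40 sandy loam–potting mix substrate. Formulation: non-phytotoxic solvent mixture plus surfactant. Untreated controls served as the reference for the visual rating after ~21–28 days.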

blackgrass = experiment: Test E blackgrass; type: in vivo, Alopecurus myosuroides; conditions: Preemergence
green foxtail = experiment: Test E green foxtail; type: in vivo, Setaria viridis; conditions: Preemergence
Italian ryegrass = experiment: Test E Italian ryegrass; type: in vivo, Lolium multiflorum; conditions: Preemergence
winter wheat [2] = experiment: Test E winter wheat; type: in vivo, Triticum aestivum; conditions: Preemergence
wild oat = experiment: Test E wild oat; type: in vivo, Avena fatua; conditions: Preemergence
winter barley = experiment: Test E winter barley; type: in vivo, Hordeum vulgare; conditions: Preemergence
[3] = Postemergence, Rate 125 g/ha, scale 0 to 10, 0 is no effect, 10 is complete control
[4] = Preemergence, Rate 62 g/ha, scale of 0 to 10 where 0 is no effect and 10 is complete control
[5] = Preemergence, Rate 250 g/ha, scale of 0 to 10 where 0 is no effect and 10 is complete control
[6] = Preemergence, Rate 500 g/ha, scale of 0 to 10 where 0 is no effect and 10 is complete control
[7] = Rate 62 g/ha, Postemergence, scale 0 to 10 (0 no effect, 10 complete control)
[8] = Rate 250 g/ha, Postemergence, scale of 0 to 10 where 0 is no effect and 10 is complete control
[9] = Rate 500 g/ha, Postemergence, scale 0 to 10, 0 no effect, 10 complete control
[10] = Rate 500 g/ha, 0 to 100 scale (0 no effect, 100 complete control)
[11] = Rate 1000 g/ha, 0 to 100 scale, 0 no effect, 100 complete control

With CC(C)N(C(=O)n1oc(=O)n(C2CC3CCC2C3)c1=O)c1ccccc1 (stereo not drawn) [Compound 328] as the compound, how does the “Plant response rating, Corn” value (corn; [3]) read?
The value was 0.

What about the “Corn plant response rating” value (corn; [4]) of the same compound?
Its value is 0.

What about the “Corn plant response rating (0 to 10 scale)” value (corn; Preemergence, Rate 125 g/ha) of the same compound?
The value was 0.

What about the “Corn plant response rating” value (corn; [5]) of the same compound?
Its value is 0.

What about the “Corn plant response rating” value (corn; [6]) of the same compound?
Its value is 0.

What about the “Corn plant response rating” value (corn; [7]) of the same compound?
The value was 0.

And the “Plant response rating, Corn” value (corn; [8])?
The value was 0.

And the “Plant response rating, Corn” value (corn; [9])?
The value was 0.

And the “Plant response rating, Rape” value (rape; [3])?
Its value is 0.

What about the “Rape plant response rating” value (rape; [4]) of the same compound?
The value was 0.

What about the “Rape plant response rating (0 to 10 scale)” value (rape; Preemergence, Rate 125 g/ha) of the same compound?
Its value is 0.

And the “Rape plant response rating” value (rape; [5])?
The value was 0.

And the “Rape plant response rating” value (rape; [6])?
The value was 0.

What about the “Rape plant response rating” value (rape; [7]) of the same compound?
Its value is 0.

And the “Plant response rating, Rape” value (rape; [8])?
Its value is 0.

And the “Plant response rating, Rape” value (rape; [9])?
Its value is 0.

What about the “Plant response rating, Soybean” value (soybean; Rate 125 g/ha, scale 0 to 10, 0 is no effect, 10 is complete control) of the same compound?
Its value is 2.

And the “Soybean plant response rating” value (soybean; [4])?
The value was 0.

And the “Soybean plant response rating (0 to 10 scale)” value (soybean; Preemergence, Rate 125 g/ha)?
Its value is 0.

What about the “Soybean plant response rating” value (soybean; [5]) of the same compound?
Its value is 0.

What about the “Soybean plant response rating” value (soybean; [6]) of the same compound?
The value was 0.

And the “Plant response rating, Soybean” value (soybean; Rate 250 g/ha, scale of 0 to 10 where 0 is no effect and 10 is complete control)?
The value was 5.

What about the “Plant response rating, Soybean” value (soybean; Rate 500 g/ha, scale 0 to 10, 0 no effect, 10 complete control) of the same compound?
Its value is 6.

And the “S. Flatsedge plant response rating” value (smallflower flatsedge; Rate 62 g/ha, headed Pre-emergence (flood test species), scale 0 to 10 (0 no effect, 10 complete control))?
The value was 0.

What about the “S. Flatsedge plant response rating” value (smallflower flatsedge; Rate 125 g/ha, Pre-emergence, flood test species, scale 0 to 10 where 0 is no effect and 10 is complete control) of the same compound?
Its value is 0.

And the “S. Flatsedge plant response rating” value (smallflower flatsedge; Rate 250 g/ha, Pre-emergence, flood-test species, scale 0 to 10, 0 is no effect, 10 is complete control)?
The value was 0.

And the “S. Flatsedge plant response rating” value (smallflower flatsedge; Rate 500 g/ha, Pre-emergence, flood test species, scale 0 to 10 (0 no effect, 10 complete control))?
Its value is 0.

What about the “Plant response rating, Wheat (winter)” value (winter wheat [1]; Rate 250 g/ha, 0 to 100 scale, 0 is no effect, 100 is complete control) of the same compound?
Its value is 65.

And the “Plant response rating, Wheat (winter)” value (winter wheat [1]; Rate 1000 g/ha, 0 to 100 scale where 0 is no effect and 100 is complete control)?
The value was 80.

And the “Plant response rating, Wheat (winter)” value (winter wheat [1]; Rate 500 g/ha, 0 to 100 scale, 0 is no effect, 100 is complete control)?
The value was 70.

And the “Plant response rating, Blackgrass” value (blackgrass; Rate 250 g/ha, 0 to 100 scale)?
The value was 50.

What about the “Plant response rating, Blackgrass” value (blackgrass; [10]) of the same compound?
Its value is 50.

And the “Plant response rating, Blackgrass” value (blackgrass; [11])?
Its value is 40.

What about the “Plant response rating, Green foxtail” value (green foxtail; Rate 250 g/ha, 0 to 100 scale) of the same compound?
Its value is 100.

What about the “Plant response rating, Green foxtail” value (green foxtail; [10]) of the same compound?
The value was 85.

And the “Plant response rating, Green foxtail” value (green foxtail; [11])?
The value was 100.

And the “Plant response rating, I. Ryegrass” value (Italian ryegrass; Rate 250 g/ha, 0 to 100 scale)?
Its value is 65.

And the “Plant response rating, I. Ryegrass” value (Italian ryegrass; [10])?
Its value is 60.

What about the “Plant response rating, I. Ryegrass” value (Italian ryegrass; [11]) of the same compound?
Its value is 70.

And the “Plant response rating, Wheat (winter)” value (winter wheat [2]; Rate 250 g/ha, 0 to 100 scale)?
The value was 40.

And the “Plant response rating, Wheat (winter)” value (winter wheat [2]; [10])?
Its value is 70.

And the “Plant response rating, Wheat (winter)” value (winter wheat [2]; [11])?
Its value is 70.

What about the “Plant response rating, Wild oat” value (wild oat; Rate 250 g/ha, 0 to 100 scale) of the same compound?
The value was 70.

And the “Plant response rating, Wild oat” value (wild oat; [10])?
Its value is 50.

What about the “Plant response rating, Wild oat” value (wild oat; [11]) of the same compound?
The value was 60.

What about the “Plant response rating, Barley (winter)” value (winter barley; Rate 250 g/ha, 0 to 100 scale, 0 no effect, 100 complete control) of the same compound?
The value was 40.

And the “Plant response rating, Barley (winter)” value (winter barley; [10])?
Its value is 50.

What about the “Plant response rating, Barley (winter)” value (winter barley; [11]) of the same compound?
Its value is 70.
